A short description of series [1]: Molar enthalpy of transition or fusion. Particulars: DSC.
The conditions of series [2]: DSC.

Numbers after ± are expanded uncertainties.

Regarding `CC1(C)[C@H]2CC[C@]1(C)C(=O)C2` [(1S)-1,7,7-trimethylbicyclo[2.2.1]heptan-2-one], the “Molar enthalpy of transition or fusion” value in series [1] (Crystal 2) was 0.0382 ± 0.17 kcal/mol; in series [1] (Crystal 3), 3.17 ± 0.184 kcal/mol. Moreover, the Triple point temperature in series [2] (Crystal 1) is listed as 453.9 ± 3.1 K; in series [2] (Crystal 2), 375.3 ± 3.1 K; in series [2] (Crystal 3), 246.3 ± 3.1 K.

For the molecule `CC1(C)[C@H]2CC[C@]1(C)[C@H](O)C2` [(1S-endo)-1,7,7-trimethylbicyclo[2.2.1]heptan-2-ol], the “Molar enthalpy of transition or fusion” value amounted to 0.715 ± 0.174 kcal/mol in series [1] (Crystal 2) and 0.172 ± 0.172 kcal/mol in series [1] (Crystal 3). Moreover, the Triple point temperature in series [2] (Crystal 1) came out at 479.7 ± 3.1 K; in series [2] (Crystal 2) it was 347.4 ± 3.1 K; in series [2] (Crystal 3), 212.3 ± 3.1 K.

For `CC1(C)[C@@H]2CC[C@@]1(C)[C@@H](O)C2` [d-borneol], the “Molar enthalpy of transition or fusion” value amounted to 0.724 ± 0.174 kcal/mol in series [1] (Crystal 2) and 0.179 ± 0.172 kcal/mol in series [1] (Crystal 3). Besides, the Triple point temperature amounted to 481.6 ± 3.1 K in series [2] (Crystal 1), 346.7 ± 3.1 K in series [2] (Crystal 2) and 213.5 ± 3.1 K in series [2] (Crystal 3).

On to `CC1(C)[C@@H]2CC[C@@]1(C)C(=O)C2` [d-camphor], for which the “Molar enthalpy of transition or fusion” value in series [1] (Crystal 2) worked out at 0.0359 ± 0.17 kcal/mol; in series [1] (Crystal 3), 2.68 ± 0.182 kcal/mol. The Triple point temperature worked out at 452.7 ± 3.1 K in series [2] (Crystal 1), 372.3 ± 3.1 K in series [2] (Crystal 2) and 242.8 ± 3.1 K in series [2] (Crystal 3).

The values above are taken from the NIST ThermoML archive (doi:10.1016/j.tca.2018.04.014).
